Reference: patent publication US9513294B2, “Megastokes amino-triazolyl-BODIPY compounds and applications to live neuron staining and human serum albumin FA1 drug site probing” (National University of Singapore, priority 2012, dated 2016)
Blank lines part the entries; values can stand above or below the compound they belong to.

Experiments:
[1] = Quantum yield measurements versus Acridine Yellow in EtOH; format: physicochemical; details: for φ (quantum yield): excitation 460 nm; for φ (%): quantum yield
Method in brief: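 Emission areas integrated over 510–700 nm were compared with Acridine Yellow in ethanol (Φ=0.47), all excited at 460 nm. The comparative equation was normalized to excitation-wavelength absorbance and solvent refractive index.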

[2] = Absorbance and fluorescence emission spectra (SpectraMax M2); format: physicochemical; details: for λmax Abs. (nm) / λmax Em. (nm): MKAC compound library; for λmax Abs. (nm) / λmax Absorp. (nm): absorbance maximum; for λmax Em. (nm) / λmax Emission (nm): fluorescence emission maximum; for λmax Absorp. (nm) / λmax Emission (nm): MKCA compound library
Method in brief: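 Spectroscopic data, including quantum yields, were recorded with a SpectraMax M2 instrument and analysed in GraphPrism.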

φ (quantum yield) ([1]; MK library, Table 5): 1.30%
λmax Absorp. ([2]; MK library, Table 5): 474 nm
λmax Emission ([2]; MK library, Table 5): 563 nm
SMILES: CCOc1ccccc1CNC1=[N+]2C(=C(c3ccc(N)cc3)c3ccc(-n4cc(CC(C)C)nn4)n3[B-]2(F)F)C=C1 [MK103-43]

φ (quantum yield) ([1]; BDCCA library, Table 4): 1.0%
λmax Absorp. ([2]; BDCCA library, Table 4): 466 nm
λmax Emission ([2]; BDCCA library, Table 4): 568 nm
SMILES: CCCCCCCc1cn(-c2ccc3n2[B-](F)(F)[N+]2=C(N4CCCCC4)C=CC2=C3c2ccc(NC(=O)CCl)cc2)nn1 [BDCCA-50]

φ (quantum yield) ([1]; BDCAC library, Table 3): 0.7%
λmax Absorp. ([2]; BDCAC library, Table 3): 462 nm
λmax Emission ([2]; BDCAC library, Table 3): 586 nm
SMILES: CC(=O)Nc1ccc(C2=C3C=CC(N4CCCCC4)=[N+]3[B-](F)(F)n3c2ccc3-n2cc(-c3ccc(F)c(F)c3)nn2)cc1 [BDCAC-16]

φ (%) ([1]; MKAC compound library): 1.85%
λmax Abs. (nm) [2]: 465 nm
λmax Em. (nm) [2]: 575 nm
SMILES: CC(=O)Nc1ccc(C2=C3C=CC(N(C)Cc4ccccc4)=[N+]3[B-](F)(F)n3c2ccc3-n2cc(CN(C)Cc3ccccc3)nn2)cc1 [MKAC195-18]

φ (%) ([1]; MKCA compound library): 28.94%
λmax Absorp. (nm) [2]: 465 nm
λmax Emission (nm) [2]: 562 nm
SMILES: CCCc1cn(-c2ccc3n2[B-](F)(F)[N+]2=C(NCc4ccccc4C)C=CC2=C3c2ccc(NC(=O)CCl)cc2)nn1 [MKCA101-48]

φ (%) ([1]; MKCA compound library): 3.35%
λmax Absorp. (nm) [2]: 462 nm
λmax Emission (nm) [2]: 570 nm
SMILES: O=C(CCl)Nc1ccc(C2=C3C=CC(N4CCCC4)=[N+]3[B-](F)(F)n3c2ccc3-n2cc(C3CC3)nn2)cc1 [MKCA215-4]

φ (quantum yield) ([1]; BDCCA library, Table 4): 0.7%
λmax Absorp. ([2]; BDCCA library, Table 4): 467 nm
λmax Emission ([2]; BDCCA library, Table 4): 587 nm
SMILES: CCCCCC(O)c1cn(-c2ccc3n2[B-](F)(F)[N+]2=C(N4CCCCC4)C=CC2=C3c2ccc(NC(=O)CCl)cc2)nn1 (racemic) [BDCCA-69]

φ (quantum yield) ([1]; BDC library, Table 2): 0.12%
λmax Absorp. ([2]; BDC library, Table 2): 475 nm
λmax Emission ([2]; BDC library, Table 2): 589 nm
SMILES: CCCCCCCCCCc1cn(-c2ccc3n2[B-](F)(F)[N+]2=C(N4CCCCC4)C=CC2=C3c2ccc(N)cc2)nn1 [BDC-49]

φ (quantum yield) ([1]; BDC library, Table 2): 0.37%
λmax Absorp. ([2]; BDC library, Table 2): 475 nm
λmax Emission ([2]; BDC library, Table 2): 567 nm
SMILES: CCCC(C)c1cn(-c2ccc3n2[B-](F)(F)[N+]2=C(N4CCCCC4)C=CC2=C3c2ccc(N)cc2)nn1 (stereo not drawn) [BDC-3]

φ (quantum yield) ([1]; BDCAC library, Table 3): 0.8%
λmax Absorp. ([2]; BDCAC library, Table 3): 468 nm
λmax Emission ([2]; BDCAC library, Table 3): 581 nm
SMILES: CCCCCCCCc1cn(-c2ccc3n2[B-](F)(F)[N+]2=C(N4CCCCC4)C=CC2=C3c2ccc(NC(C)=O)cc2)nn1 [BDCAC-44]

φ (quantum yield) ([1]; BDC library, Table 2): 0.28%
λmax Absorp. ([2]; BDC library, Table 2): 470 nm
λmax Emission ([2]; BDC library, Table 2): 564 nm
SMILES: Cc1ccc(-c2cn(-c3ccc4n3[B-](F)(F)[N+]3=C(N5CCCCC5)C=CC3=C4c3ccc(N)cc3)nn2)cc1 [BDC-10]

φ (quantum yield) ([1]; BDCAC library, Table 3): 1.5%
λmax Absorp. ([2]; BDCAC library, Table 3): 467 nm
λmax Emission ([2]; BDCAC library, Table 3): 578 nm
SMILES: CC(=O)Nc1ccc(C2=C3C=CC(N4CCCCC4)=[N+]3[B-](F)(F)n3c2ccc3-n2cc(C3CC3)nn2)cc1 [BDCAC-4]

φ (%) ([1]; MKAC compound library): 1.92%
λmax Abs. (nm) [2]: 469 nm
λmax Em. (nm) [2]: 581 nm
SMILES: CC(=O)Nc1ccc(C2=C3C=CC(N4CCc5ccccc5C4)=[N+]3[B-](F)(F)n3c2ccc3-n2cc(CC(C)C)nn2)cc1 [MKAC66-43]

φ (quantum yield) ([1]; BDCCA library, Table 4): 0.7%
λmax Absorp. ([2]; BDCCA library, Table 4): 468 nm
λmax Emission ([2]; BDCCA library, Table 4): 581 nm
SMILES: CC(C)(C)c1cn(-c2ccc3n2[B-](F)(F)[N+]2=C(N4CCCCC4)C=CC2=C3c2ccc(NC(=O)CCl)cc2)nn1 [BDCCA-1]

φ (quantum yield) ([1]; MK library, Table 5): 0.27%
λmax Absorp. ([2]; MK library, Table 5): 475 nm
λmax Emission ([2]; MK library, Table 5): 592 nm
SMILES: CN(Cc1ccccc1)C1=[N+]2C(=C(c3ccc(N)cc3)c3ccc(-n4cc(CO)nn4)n3[B-]2(F)F)C=C1 [MK195-70]

φ (%) ([1]; MKCA compound library): 2.61%
λmax Absorp. (nm) [2]: 468 nm
λmax Emission (nm) [2]: 581 nm
SMILES: O=C(CCl)Nc1ccc(C2=C3C=CC(N4CCc5ccccc5C4)=[N+]3[B-](F)(F)n3c2ccc3-n2cc(CO)nn2)cc1 [MKCA66-70]

φ (%) ([1]; MKAC compound library): 1.55%
λmax Abs. (nm) [2]: 467 nm
λmax Em. (nm) [2]: 586 nm
SMILES: CC(=O)Nc1ccc(C2=C3C=CC(N4CC(C)OC(C)C4)=[N+]3[B-](F)(F)n3c2ccc3-n2cc(CC(C)C)nn2)cc1 (stereo not drawn) [MKAC20-43]

φ (quantum yield) ([1]; BDCCA library, Table 4): 0.7%
λmax Absorp. ([2]; BDCCA library, Table 4): 468 nm
λmax Emission ([2]; BDCCA library, Table 4): 590 nm
SMILES: O=C(CCl)Nc1ccc(C2=C3C=CC(N4CCCCC4)=[N+]3[B-](F)(F)n3c2ccc3-n2cc(C3(O)CCCC3)nn2)cc1 [BDCCA-67]

φ (quantum yield) ([1]; BDC library, Table 2): 0.18%
λmax Absorp. ([2]; BDC library, Table 2): 471 nm
λmax Emission ([2]; BDC library, Table 2): 580 nm
SMILES: CN(Cc1ccccc1)Cc1cn(-c2ccc3n2[B-](F)(F)[N+]2=C(N4CCCCC4)C=CC2=C3c2ccc(N)cc2)nn1 [BDC-18]

φ (%) ([1]; MKAC compound library): 1.56%
λmax Abs. (nm) [2]: 468 nm
λmax Em. (nm) [2]: 585 nm
SMILES: CC(=O)Nc1ccc(C2=C3C=CC(N4CCc5ccccc5C4)=[N+]3[B-](F)(F)n3c2ccc3-n2cc(CN(C)Cc3ccccc3)nn2)cc1 [MKAC66-18]

φ (%) ([1]; MKCA compound library): 4.93%
λmax Absorp. (nm) [2]: 467 nm
λmax Emission (nm) [2]: 580 nm
SMILES: CN(Cc1ccccc1)C1=[N+]2C(=C(c3ccc(NC(=O)CCl)cc3)c3ccc(-n4cc(C5CCCC5)nn4)n3[B-]2(F)F)C=C1 [MKCA195-5]

φ (%) ([1]; MKAC compound library): 2.14%
λmax Abs. (nm) [2]: 469 nm
λmax Em. (nm) [2]: 582 nm
SMILES: CCCc1cn(-c2ccc3n2[B-](F)(F)[N+]2=C(N4CCc5ccccc5C4)C=CC2=C3c2ccc(NC(C)=O)cc2)nn1 [MKAC66-48]

φ (%) ([1]; MKAC compound library): 1.00%
λmax Abs. (nm) [2]: 463 nm
λmax Em. (nm) [2]: 574 nm
SMILES: CC(=O)Nc1ccc(C2=C3C=CC(N4CCCC4)=[N+]3[B-](F)(F)n3c2ccc3-n2cc(C3CCCC3)nn2)cc1 [MKAC215-5]

φ (quantum yield) ([1]; MK library, Table 5): 0.14%
λmax Absorp. ([2]; MK library, Table 5): 480 nm
λmax Emission ([2]; MK library, Table 5): 583 nm
SMILES: CCCCCC(O)c1cn(-c2ccc3n2[B-](F)(F)[N+]2=C(N4CCc5ccccc5C4)C=CC2=C3c2ccc(N)cc2)nn1 (stereo not drawn) [MK66-69]

φ (quantum yield) ([1]; MK library, Table 5): 0.27%
λmax Absorp. ([2]; MK library, Table 5): 477 nm
λmax Emission ([2]; MK library, Table 5): 582 nm
SMILES: CN(Cc1ccccc1)C1=[N+]2C(=C(c3ccc(N)cc3)c3ccc(-n4cc(CCc5ccccc5)nn4)n3[B-]2(F)F)C=C1 [MK195-19]

φ (%) ([1]; MKAC compound library): 21.83%
λmax Abs. (nm) [2]: 465 nm
λmax Em. (nm) [2]: 561 nm
SMILES: CC(=O)Nc1ccc(C2=C3C=CC(NCc4cc(F)cc(F)c4)=[N+]3[B-](F)(F)n3c2ccc3-n2cc(CN(C)Cc3ccccc3)nn2)cc1 [MKAC412-18]

φ (quantum yield) ([1]; BDCCA library, Table 4): 0.6%
λmax Absorp. ([2]; BDCCA library, Table 4): 468 nm
λmax Emission ([2]; BDCCA library, Table 4): 589 nm
SMILES: O=C(CCl)Nc1ccc(C2=C3C=CC(N4CCCCC4)=[N+]3[B-](F)(F)n3c2ccc3-n2cc(CC3CCCCC3)nn2)cc1 [BDCCA-8]

φ (quantum yield) ([1]; BDCCA library, Table 4): 0.7%
λmax Absorp. ([2]; BDCCA library, Table 4): 462 nm
λmax Emission ([2]; BDCCA library, Table 4): 581 nm
SMILES: O=C(CCl)Nc1ccc(C2=C3C=CC(N4CCCCC4)=[N+]3[B-](F)(F)n3c2ccc3-n2cc(-c3ccc(F)c(F)c3)nn2)cc1 [BDCCA-16]

φ (quantum yield) ([1]; BDCCA library, Table 4): 1.8%
λmax Absorp. ([2]; BDCCA library, Table 4): 466 nm
λmax Emission ([2]; BDCCA library, Table 4): 560 nm
SMILES: CCCCCCc1cn(-c2ccc3n2[B-](F)(F)[N+]2=C(N4CCCCC4)C=CC2=C3c2ccc(NC(=O)CCl)cc2)nn1 [BDCCA-47]

φ (%) ([1]; MKAC compound library): 29.05%
λmax Abs. (nm) [2]: 464 nm
λmax Em. (nm) [2]: 562 nm
SMILES: CCOc1ccccc1CNC1=[N+]2C(=C(c3ccc(NC(C)=O)cc3)c3ccc(-n4cc(CCc5ccccc5)nn4)n3[B-]2(F)F)C=C1 [MKAC103-19]

φ (%) ([1]; MKAC compound library): 2.13%
λmax Abs. (nm) [2]: 467 nm
λmax Em. (nm) [2]: 583 nm
SMILES: CC(=O)Nc1ccc(C2=C3C=CC(N4CC(C)OC(C)C4)=[N+]3[B-](F)(F)n3c2ccc3-n2cc(CN(C)Cc3ccccc3)nn2)cc1 (stereo not drawn) [MKAC20-18]
